Test results taken from PubChem BioAssay (NCI).
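96-well plates; 48 h exposure; 5 concentrations. Endpoints by linear interpolation between flanking doses. Not reached: highest tested concentration assigned. TGI is the concentration that stops growth completely.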

Legend:
Assay in all cases: inhibition of tumour cell growth, NCI panel, 48 h
[1] = test system: UO-31 renal
[2] = test system: NCI-H23 lung
[3] = test system: SW-620 colon
[4] = test system: HCT-15 colon
[5] = test system: NCI-H522 lung
[6] = test system: SNB-75 CNS
[7] = test system: OVCAR-5 ovarian
[8] = test system: MDA-MB-231 breast
[9] = test system: HOP-62 NSCLC
[10] = test system: MCF7 breast
[11] = test system: SK-MEL-28 melanoma
[12] = test system: OVCAR-3 ovarian
[13] = test system: HS 578T breast
[14] = test system: EKVX NSCLC
[15] = test system: RPMI-8226 leukemia
[16] = test system: SF-295 CNS
[17] = test system: NCI-H226 lung
[18] = test system: SK-OV-3 ovarian
[19] = test system: NCI/ADR-RES ovarian
[20] = test system: SK-MEL-2 melanoma
[21] = test system: KM12 colon
[22] = test system: NCI-H460 lung
[23] = test system: CCRF-CEM leukemia
[24] = test system: HOP-92 NSCLC
[25] = test system: K-562 leukemia
[26] = test system: MOLT-4 leukemia
[27] = test system: U251 CNS
[28] = test system: SF-268 CNS
[29] = test system: SK-MEL-5 melanoma
[30] = test system: MDA-N
[31] = test system: T-47D breast
[32] = test system: A498 renal
[33] = test system: SR leukemia
[34] = test system: A549 NSCLC
[35] = test system: BT-549 breast
[36] = test system: LOX IMVI melanoma
[37] = test system: SF-539 CNS
[38] = test system: DU-145 prostate
[39] = test system: RXF 393 renal
[40] = test system: PC-3 prostate
[41] = test system: SNB-19 CNS
[42] = test system: HT29 colon
[43] = test system: M14 melanoma
[44] = test system: OVCAR-4 ovarian
[45] = test system: IGROV1 ovarian
[46] = test system: MDA-MB-435
[47] = test system: UACC-62 melanoma
[48] = test system: 786-0 renal
[49] = test system: COLO 205 colon
[50] = test system: HCT-116 colon
[51] = test system: ACHN renal
[52] = test system: TK-10 renal
[53] = test system: HL-60(TB) leukemia
[54] = test system: MALME-3M melanoma
[55] = test system: OVCAR-8 ovarian
[56] = test system: SN12C renal
[57] = test system: CAKI-1 renal
[58] = test system: UACC-257 melanoma
[59] = test system: HCC-2998 colon

O[C@@H]1C=C[C@]23CCN(Cc4cc5c(cc42)OCO5)[C@@H]3C1
TGI [1]: > 100 µM
TGI [2]: > 100 µM
TGI [3]: > 100 µM
TGI [4]: > 100 µM
TGI [5]: > 100 µM
TGI [6]: > 100 µM
TGI [7]: > 100 µM
TGI [8]: > 100 µM
TGI [9]: > 100 µM
TGI [10]: > 100 µM
TGI [11]: > 100 µM
TGI [12]: > 100 µM
TGI [13]: > 100 µM
TGI [14]: > 100 µM
TGI [15]: > 100 µM
TGI [16]: > 100 µM
TGI [17]: > 100 µM
TGI [18]: > 100 µM
TGI [19]: > 100 µM
TGI [20]: > 100 µM
TGI [21]: > 100 µM
TGI [22]: > 100 µM
TGI [23]: > 100 µM
TGI [24]: > 100 µM
TGI [25]: > 100 µM
TGI [26]: > 100 µM
TGI [27]: > 100 µM
TGI [28]: > 100 µM
TGI [29]: > 100 µM
TGI [30]: > 100 µM
TGI [31]: > 100 µM
TGI [32]: > 100 µM
TGI [33]: > 100 µM
TGI [34]: > 100 µM
TGI [35]: > 100 µM
TGI [36]: > 100 µM
TGI [37]: > 100 µM
TGI [38]: > 100 µM
TGI [39]: > 100 µM
TGI [40]: > 100 µM
TGI [41]: > 100 µM
TGI [42]: > 100 µM
TGI [43]: > 100 µM
TGI [44]: > 100 µM
TGI [45]: > 100 µM
TGI [46]: > 100 µM
TGI [47]: > 100 µM
TGI [48]: > 100 µM
TGI [49]: > 100 µM
TGI [50]: > 100 µM
TGI [51]: > 100 µM
TGI [52]: > 100 µM
TGI [53]: > 100 µM
TGI [54]: > 100 µM
TGI [55]: > 100 µM
TGI [56]: > 100 µM
TGI [57]: > 100 µM
TGI [58]: > 100 µM

CC(=O)n1cc(C2CC23N=C(c2ccccc2)OC3=O)c2ccccc21 (configuration not stated)
TGI [1]: 30.9 µM
TGI [2]: 42 µM
TGI [3]: 56.7 µM
TGI [4]: 58.9 µM
TGI [5]: 37.3 µM
TGI [6]: 39.6 µM
TGI [7]: 49.7 µM
TGI [8]: 46.4 µM
TGI [9]: > 100 µM
TGI [10]: 42.9 µM
TGI [11]: 45.6 µM
TGI [12]: 53.4 µM
TGI [13]: 68.6 µM
TGI [59]: 30.8 µM
TGI [14]: 51.1 µM
TGI [15]: 26.2 µM
TGI [16]: > 100 µM
TGI [17]: 44.5 µM
TGI [18]: > 100 µM
TGI [19]: > 56 µM
TGI [20]: 44.5 µM
TGI [21]: 48.7 µM
TGI [22]: > 64.9 µM
TGI [23]: 7.86 µM
TGI [24]: 52.5 µM
TGI [25]: 77.6 µM
TGI [27]: 36.8 µM
TGI [28]: 46.3 µM
TGI [29]: 40.2 µM
TGI [30]: 81.7 µM
TGI [31]: > 100 µM
TGI [32]: 56.7 µM
TGI [33]: 40.3 µM
TGI [34]: 59.9 µM
TGI [35]: 30.3 µM
TGI [36]: 35.8 µM
TGI [37]: 41.2 µM
TGI [38]: 33.2 µM
TGI [39]: 34.6 µM
TGI [40]: 41.5 µM
TGI [41]: > 89.7 µM
TGI [42]: 39.9 µM
TGI [43]: 34.9 µM
TGI [44]: 42.4 µM
TGI [45]: 38.3 µM
TGI [46]: 72.9 µM
TGI [47]: 31.7 µM
TGI [48]: 33.5 µM
TGI [49]: 44.8 µM
TGI [50]: 27.9 µM
TGI [51]: 38.3 µM
TGI [52]: 53.8 µM
TGI [53]: 6.12 µM
TGI [54]: 58.2 µM
TGI [55]: 35.3 µM
TGI [56]: 31.9 µM
TGI [57]: 36 µM
TGI [58]: 32.8 µM

O=[N+]([O-])c1ccc(NN=C2CN3CCN(C2)c2ccccc23)c([N+](=O)[O-])c1
TGI [1]: > 100 µM
TGI [2]: > 100 µM
TGI [3]: > 100 µM
TGI [4]: > 100 µM
TGI [5]: > 100 µM
TGI [7]: > 100 µM
TGI [8]: > 100 µM
TGI [9]: > 100 µM
TGI [10]: > 100 µM
TGI [11]: > 100 µM
TGI [12]: > 100 µM
TGI [13]: > 100 µM
TGI [59]: > 100 µM
TGI [14]: > 100 µM
TGI [16]: > 100 µM
TGI [18]: > 100 µM
TGI [19]: > 100 µM
TGI [21]: > 100 µM
TGI [22]: > 100 µM
TGI [23]: > 100 µM
TGI [24]: > 100 µM
TGI [25]: > 100 µM
TGI [26]: > 100 µM
TGI [27]: > 100 µM
TGI [28]: > 100 µM
TGI [29]: > 100 µM
TGI [30]: > 100 µM
TGI [31]: > 100 µM
TGI [32]: > 100 µM
TGI [33]: > 100 µM
TGI [34]: > 100 µM
TGI [35]: > 100 µM
TGI [36]: > 100 µM
TGI [37]: > 100 µM
TGI [38]: > 100 µM
TGI [40]: > 100 µM
TGI [41]: > 100 µM
TGI [42]: > 100 µM
TGI [43]: > 100 µM
TGI [44]: > 100 µM
TGI [45]: > 100 µM
TGI [46]: > 100 µM
TGI [47]: > 100 µM
TGI [48]: > 100 µM
TGI [49]: > 100 µM
TGI [50]: > 100 µM
TGI [51]: > 100 µM
TGI [52]: > 100 µM
TGI [54]: > 100 µM
TGI [55]: > 100 µM
TGI [56]: > 100 µM
TGI [57]: > 100 µM
TGI [58]: > 100 µM

Cc1cccc2c(N)c3cccc(C(=O)NCC[N+](C)(C)Cc4ccc([N+](=O)[O-])s4)c3nc12
TGI [1]: > 74.7 µM
TGI [2]: 21.9 µM
TGI [3]: > 66.3 µM
TGI [4]: > 100 µM
TGI [5]: 28.2 µM
TGI [6]: 43.8 µM
TGI [7]: > 61.2 µM
TGI [8]: 21.3 µM
TGI [9]: 32.5 µM
TGI [10]: > 51.9 µM
TGI [11]: > 100 µM
TGI [12]: 49.6 µM
TGI [13]: 34.6 µM
TGI [59]: 25.2 µM
TGI [14]: 41.5 µM
TGI [15]: 34.1 µM
TGI [16]: > 100 µM
TGI [17]: 21.9 µM
TGI [18]: > 75.9 µM
TGI [19]: > 100 µM
TGI [20]: > 77.6 µM
TGI [21]: > 54.3 µM
TGI [22]: 16.5 µM
TGI [23]: 24.4 µM
TGI [24]: 68.8 µM
TGI [25]: 27.9 µM
TGI [26]: 9.36 µM
TGI [27]: > 100 µM
TGI [28]: 36.9 µM
TGI [29]: 28.2 µM
TGI [30]: 49.9 µM
TGI [31]: > 67.6 µM
TGI [32]: 23.6 µM
TGI [33]: 5.7 µM
TGI [34]: 17.5 µM
TGI [35]: > 70.5 µM
TGI [36]: 18.6 µM
TGI [37]: 23.9 µM
TGI [38]: 46.8 µM
TGI [39]: 25.9 µM
TGI [40]: 30.5 µM
TGI [41]: 60.2 µM
TGI [42]: 23.6 µM
TGI [43]: 39.7 µM
TGI [44]: 25.1 µM
TGI [45]: 26 µM
TGI [46]: > 63.9 µM
TGI [47]: > 49.1 µM
TGI [48]: 27.8 µM
TGI [49]: 21.4 µM
TGI [50]: > 100 µM
TGI [51]: > 49.2 µM
TGI [52]: > 100 µM
TGI [54]: 25 µM
TGI [55]: 42.9 µM
TGI [56]: 49 µM
TGI [57]: > 73.8 µM
TGI [58]: > 78 µM
